Measured values as given in PMC12081029, “Structural, Spectroscopic, and Docking Analysis of N,O‐Donor Ligand Metal Complex Nanoparticles With Hypolipidemic Effects via Lipoprotein Lipase Activation in High‐Fat Diet Mice” (Chemistry & Biodiversity, 2024).
Several values for one entry are separate records, joined by “and”; a condition that tells them apart may be missing. Identical values can stand only once. Like-named read-outs stand apart in the source and are kept apart here.

Tests used:
Bacillus subtilis [1] = conditions: cited from earlier work
Aspergillus niger [2] = tested on: Aspergillus niger; design: method as in PMID 16740311; conditions: cited from earlier work
Salmonella typhi [3] = tested on: Salmonella typhi; design: method as in PMID 16740311; conditions: cited from earlier work
Escherichia coli [4] = conditions: cited from earlier work
Staphylococcus aureus [5] = conditions: cited from earlier work
Salmonella typhi [6] = experiment: Agar diffusion, inhibition zone (ZOI) and activity index; assay type: cell-based; conditions: for ZOI: 10^−3 M in DMF, 5 mm holes, 20 h at 37°C
Staphylococcus aureus [7] = experiment: MIC / MBC determination
Aspergillus niger [8] = experiment: MIC determination
Bacillus subtilis [9] = experiment: MIC / MBC determination
Aspergillus niger [10] = experiment: Agar diffusion, inhibition zone (ZOI) and activity index; conditions: for ZOI: 10^−3 M in DMF, 5 mm holes, 7 days at 30°C
Staphylococcus aureus [11] = experiment: as above; conditions: for ZOI / AI: Staphylococcus aureus; for ZOI: 10^−3 M in DMF, 5 mm holes, 20 h at 37°C; for AI: ZOI of compound / ZOI of standard (ampicillin) × 100
Aspergillus terreus [12] = experiment: as above; conditions: for ZOI: 10^−3 M in DMF, 5 mm holes, 7 days at 30°C; for AI: ZOI of compound / ZOI of standard (colitrimazole) × 100
Bacillus subtilis [13] = experiment: as above; conditions: for ZOI: 10^−3 M in DMF, 5 mm holes, 20 h at 37°C
[14] = Serum lipid profile in high-fat diet mice; assay type: in vivo; conditions: HFD C57BL/6 mice, 4 mg kg^−1 body weight, 3 months, mean ± SD
Protocol: (§1) This study employed 8‐week‐old male C57BL/6 mice of matched weight (around 20–25 g) from an inbred “genetically identical” strain. The mice were purchased from the National Research Center's Animal House. Then, they were subdivided into five groups, each group containing eight mice; four groups were treated with CETZ.2HCl (antihistamine drug) and its metal complexes, whereas one group was left untreated and classified as a control group. Animals were housed in modular plastic veterinary cages at air‐conditioned room, under pathogen‐free conditions. Mice were fed HFD, which consisted of carbs 42.0%, fat 23.0%, protein 17.0%, fiber 3.0%, minerals 5.0%, and moisture 10.0% for 3 months, together with administration of either CETZ.2HCl or its metal complexes (4 mg kg ^−1 body weight) in DMF [37]. Experiments were performed in accordance with the regulations of the Animal Care and Use Committee of the College of Veterinary Medicine, Mansoura University (MU‐ACUC), Egypt; MU‐ACUC (PHARM.R.24.02.30), complied with “Guide for the Care and Use of Laboratory Animals” (National Research Council publication 8th ed., USA, 2011).
(§2) Specimens of blood were gathered from the retro‐orbital sinus, under halothane (1.5 percent v/v halothane in oxygen) anesthesia via inhalation. The collected blood was allowed to clot, by centrifugation at 1600 rpm for 20 min, to obtain serum. Isolated sera were maintained at −80°C until tests of liver function in addition to lipid profiles were performed. For estimation of L. lipase activity, fluorometric L. lipase activity assay kit was utilized following the manufacturer's protocol (Cat. No. STA‐610, Cell BIOLABS INC., San Diego, USA). Serum T. chol. LDL, HDL, TG, ALT (alanine aminotransferase), AST (aspartate aminotransferase), and ALP (alkaline phosphatase) were examined with Roche kits using COBAS Integra 400 and COBAS Integra‐400 plus (Roche Diagnostics Limited, Switzerland).

[15] = tested on: lipoprotein lipase (L. lipase); experiment: Serum L. lipase activity in high-fat diet mice (fluorometric kit); assay type: in vivo; conditions: HFD C57BL/6 mice; for L. lipase (serum enzyme activity): 4 mg kg^−1 body weight in DMF, 3 months, mean ± SD; for mean L. lipase activity: rounded, 4 mg kg^−1 body weight
Protocol: as §1, §2

Aspergillus terreus [16] = experiment: MIC determination
Escherichia coli [17] = experiment: MIC / MBC determination
Escherichia coli [18] = experiment: Agar diffusion, inhibition zone (ZOI) and activity index; conditions: for ZOI: 10^−3 M in DMF, 5 mm holes, 20 h at 37°C
[19] = Serum liver function enzymes in high-fat diet mice; assay type: in vivo; conditions: HFD C57BL/6 mice, 4 mg kg^−1 body weight, 3 months, mean ± SD
Protocol: as §1, §2

Salmonella typhi [20] = experiment: MIC / MBC determination; assay type: cell-based; conditions: Salmonella typhi
[21] = Table 9, preceding research ref [68]
[22] = Salmonella typhi, ZOI of compound / ZOI of standard (gentamicin) × 100
[23] = Aspergillus niger, ZOI of compound / ZOI of standard (colitrimazole) × 100
[24] = Bacillus subtilis, ZOI of compound / ZOI of standard (ampicillin) × 100
[25] = Escherichia coli, ZOI of compound / ZOI of standard (gentamicin) × 100

For `O.O.O=C([O-])COCCN1CCN(C(c2ccccc2)c2ccc(Cl)cc2)CC1.O=[N+]([O-])[O-].[Cu+2].c1ccc(-c2ccccn2)nc1` (stereo not drawn) [[(Cu(CETZ)(Bipy)(H2O)2(NO3)]], the AI (Bacillus subtilis [1]; Table 9, Bacillus subtillis ref [68]) is given as 55.3, the “Bacillus subtillis (inhibition zone)” value (Bacillus subtilis [1]; [21]) is given as 15.7 ^+ ^1 ± 0.001 and the AI (Aspergillus niger [2]; Table 9, Aspergillus niger ref [68]) is given as 88.89. For the same compound, the “Aspergillus niger (inhibition zone)” value (Aspergillus niger [2]; [21]) was 17.6 ^+ ^1 ± 0.11, the AI (Salmonella typhi [3]; Table 9, Salmonella typhi ref [68]) was 59.9 and the “Salmonella typhi (inhibition zone)” value (Salmonella typhi [3]; [21]) was 12.4 ^+ ^1 ± 0.22. For the same compound, the AI (Escherichia coli [4]; Table 9, Escherichia coli ref [68]) was 113.3, the “Escherichia coli (inhibition zone)” value (Escherichia coli [4]; [21]) was 22.1 ^+ ^2 ± 0.005 and the AI (Staphylococcus aureus [5]; Table 9, Staphylococcus aureus ref [68]) was 105.7. For the same compound, the “Staphylococcus aureus (inhibition zone)” value (Staphylococcus aureus [5]; [21]) was 24 ^+ ^3 ± 0.13.
With `O.O.O=C([O-])COCCN1CCN(C(c2ccccc2)c2ccc(Cl)cc2)CC1.O=[N+]([O-])[O-].[Cu+2].c1cnc2c(c1)ccc1cccnc12` (stereo not drawn) [complex (1), [Cu(CETZ)(Phen)(H2O)2(NO3)]] the ZOI (Salmonella typhi [6]; Salmonella typhi) was 30.0 ^+ ^3 ±0.10 mm, the AI (Salmonella typhi [6]; [22]) was 144.9% and the AI (Salmonella typhi [6]; Table 9, Salmonella typhi, this work) was 59.9. The “Salmonella typhi (inhibition zone)” value (Salmonella typhi [6]; Table 9, this work) was 30.0 ^+ ^3 ± 0.10, the MBC (Staphylococcus aureus [7]) was 0.086 µg/mL and 0.086 ± 0.004 µg/mL and the MIC (Staphylococcus aureus [7]) was 0.075 µg/mL and 0.075 ± 0.03 µg/mL. The MIC (Aspergillus niger [8]) was 0.050 µg/mL and 0.050 ± 0.02 µg/mL, the MIC (Bacillus subtilis [9]) was 0.050 ± 0.007 µg/mL and the ZOI (Aspergillus niger [10]; Aspergillus niger) was 13.1^NS ±0.38 mm. For the same compound, the AI (Aspergillus niger [10]; [23]) was 66.16%, the AI (Aspergillus niger [10]; Table 9, Aspergillus niger, this work) was 88.89 and the “Aspergillus niger (inhibition zone)” value (Aspergillus niger [10]; Table 9, this work) was 13.1^NS ± 0.38. The ZOI (Staphylococcus aureus [11]) was 17.3 ^+ ^2 ±0.33 mm, the AI (Staphylococcus aureus [11]) was 76.2% and the “Staphylococcus aureus (inhibition zone)” value (Staphylococcus aureus [11]; Table 9, this work) was 17.3 ^+ ^2 ± 0.33. The ZOI (Aspergillus terreus [12]) was 10.5^NS ±1.06 mm, the AI (Aspergillus terreus [12]) was 60.0% and the ZOI (Bacillus subtilis [13]; Bacillus subtilis) was 23.3 ^+ ^2 ± 0.66 mm. The AI (Bacillus subtilis [13]; [24]) was 82.04%, the AI (Bacillus subtilis [13]; Table 9, Bacillus subtillis, this work) was 55.3 and the “Bacillus subtillis (inhibition zone)” value (Bacillus subtilis [13]; Table 9, this work) was 23.3 ^+ ^2 ± 0.66. For the same compound, the HDL [14] was 80.75 ± 8.26 mg/dL, the LDL [14] was 60.5 ± 5.78 mg/dL and the “Total Chol.” value [14] was 138.88 ± 10.92 mg/dL. The Trig [14] was 77.25 ± 9.3 mg/dL, the “L. lipase (serum enzyme activity)” value [15] was 127.88 U/L and the “L. lipase (serum enzyme activity)” value ([15]; listed as Cu-CETZ Complex) was 127.88±11.72 U/L. For the same compound, the “mean L. lipase activity” value [15] was 127.9 U L^−1, the MIC (Aspergillus terreus [16]) was 0.075 µg/mL and 0.075 ± 0.005 µg/mL and the MBC (Escherichia coli [17]) was 0.15 0.02 µg mL^−1. The MIC (Escherichia coli [17]) was 0.1 ± 0.006 µg/mL, the ZOI (Escherichia coli [18]; Escherichia coli) was 32.5 ^+ ^3 ±0.30 mm and the AI (Escherichia coli [18]; [25]) was 166.6%. For the same compound, the AI (Escherichia coli [18]; Table 9, Escherichia coli, this work) was 113.3, the “Escherichia coli (inhibition zone)” value (Escherichia coli [18]; Table 9, this work) was 32.5 ^+ ^3 ± 0.30 and the ALP [19] was 88 ± 12.64 U L^−1. For the same compound, the ALT [19] was 228.63 ± 50.57 U L^−1, the AST [19] was 274.63 ± 36.40^NS U L^−1 and the MBC (Salmonella typhi [20]) was 0.081 ± 0.01 µg/mL. For the same compound, the MIC (Salmonella typhi [20]) was 0.075 µg/mL and 0.075 ± 0.006 µg/mL.
For [Zn(CETZ)(Phen)(H2O)2Cl] [complex (2)], the ZOI (Salmonella typhi [6]; Salmonella typhi) was 18.0 ^+ ^2 ±0.17 mm, the AI (Salmonella typhi [6]; [22]) was 86.9% and the MBC (Staphylococcus aureus [7]) was 0.057 µg/mL and 0.057 ± 0.002 µg/mL. For the same compound, the MIC (Staphylococcus aureus [7]) was 0.050 µg/mL and 0.050 ± 0.007 µg/mL, the MIC (Aspergillus niger [8]) was 0.025 µg/mL and 0.025 ± 0.01 µg/mL and the MIC (Bacillus subtilis [9]) was 0.050 ± 0.01 µg/mL. The ZOI (Aspergillus niger [10]; Aspergillus niger) was 17.6 ^+ ^1 ±0.43 mm, the AI (Aspergillus niger [10]; [23]) was 88.88% and the ZOI (Staphylococcus aureus [11]) was 15.2 ^+ ^1 ±0.74 mm. The AI (Staphylococcus aureus [11]) was 66.9%, the ZOI (Aspergillus terreus [12]) was 12.0^NS ±1.71 mm and the AI (Aspergillus terreus [12]) was 68.57%. The ZOI (Bacillus subtilis [13]; Bacillus subtilis) was 21.2 ^+ ^2 ±1.04 mm, the AI (Bacillus subtilis [13]; [24]) was 74.65% and the HDL [14] was 115.75 ± 13.32 mg/dL. The LDL [14] was 71.63 ± 6.5 mg/dL, the “Total Chol.” value [14] was 155.5 ± 16.01 mg/dL and the Trig [14] was 70.63 ± 6.05 mg/dL. The “L. lipase (serum enzyme activity)” value [15] was 108.88 U/L, the “L. lipase (serum enzyme activity)” value ([15]; listed as Zn-CETZ Complex) was 108.88±20.0 U/L and the “mean L. lipase activity” value [15] was 108.9 U L^−1. The MIC (Aspergillus terreus [16]) was 0.050 µg/mL and 0.050 ± 0.02 µg/mL, the MBC (Escherichia coli [17]) was 0.063 ± 0.015 µg/mL and the MIC (Escherichia coli [17]) was 0.050 µg/mL and 0.050 ± 0.02 µg/mL. The ZOI (Escherichia coli [18]; Escherichia coli) was 7.9^NS ±0.34 mm, the AI (Escherichia coli [18]; [25]) was 40.5% and the ALP [19] was 49.63 ± 6.16 U L^−1. It also gave an ALT [19] of 164.87 ± 35.27 U L^−1, an AST [19] of 156.5 ± 16.12 U L^−1 and an MBC (Salmonella typhi [20]) of 0.065 ± 0.014 µg/mL. For the same compound, the MIC (Salmonella typhi [20]) was 0.050 µg/mL and 0.050 ± 0.007 µg/mL.
